# Data taken from US11000505B2 (priority 2010, dated 2021).
# Tests used:
# [1] = Solubility in cyclodextrin solutions (HPLC)
# basilar artery = assay: Subarachnoid hemorrhage model (Example 8); format: in vivo
# ERK/MAPK = assay: CSF pERK/ERK after pretreatment by ELISA (Example 3); format: in vivo, piglets; conditions: 30 minutes after pretreatment
# [2] = tested on: middle cerebral artery occlusion (MCAO); conditions: mouse, in vivo
# pial artery [3] = conditions: 10%-16% changes compared to the baseline
# pial artery [4] = format: in vivo, piglets
# [5] = SB203580 10 μM topical 30 min before salvinorin A
# [6] = SP600125 1 μM topical 30 min before salvinorin A
# [7] = U0126 1 mg/kg i.v. 30 min before salvinorin A
# [8] = pretreatment 10 μg/kg i.v. 30 min before H/I
smiles,measurement,setting,value
COC(=O)[C@@H]1C[C@H](OC(C)=O)C(=O)[C@H]2[C@@]1(C)CC[C@H]1C(=O)O[C@H](c3ccoc3)C[C@]21C [Salvinorin A],solubility,"[1]; 20% 2-hydroxypropyl-β-cyclodextrin (HPBCD) in water, aqueous with cosolvent or surfactant or cyclodextrin, thermodynamic from solid, Concentration (solubility), 20% HPBCD, mean ± SD",122.5 ± 0.6 µg/mL
same,solubility,"[1]; 20% 2-hydroxypropyl-β-cyclodextrin (HPBCD) in water, aqueous with cosolvent or surfactant or cyclodextrin, thermodynamic from solid, maximum concentration (solubility), HPBCD",> 100 µg/mL
same,solubility,"[1]; 20% 2-hydroxypropyl-β-cyclodextrin (HPBCD) in water, aqueous with cosolvent or surfactant or cyclodextrin, thermodynamic from solid, solubility, 20% HPBCD",122.5 ± 0.6 µg/mL
same,solubility,"[1]; 20% 2-hydroxypropyl-γ-cyclodextrin (HPGCD) in water, aqueous with cosolvent or surfactant or cyclodextrin, thermodynamic from solid, Concentration (solubility), 20% HPGCD, mean ± SD",52.6 ± 0.9 µg/mL
same,solubility,"[1]; 20% 2-hydroxypropyl-γ-cyclodextrin (HPGCD) in water, aqueous with cosolvent or surfactant or cyclodextrin, thermodynamic from solid, solubility, 20% HPGCD",52.6 ± 0.9 µg/mL
same,solubility,"[1]; 20% α-cyclodextrin sulfated sodium salt in water, aqueous with cosolvent or surfactant or cyclodextrin, thermodynamic from solid, Concentration (solubility), 20% α-Cyclodextrin sulfated sodium salt, mean ± SD",1 ± 0.1 µg/mL
same,solubility,"[1]; 20% β-cyclodextrin sulfated sodium salt in water, aqueous with cosolvent or surfactant or cyclodextrin, thermodynamic from solid, Concentration (solubility), 20% β-Cyclodextrin sulfated sodium salt, mean ± SD",1.5 ± 0.1 µg/mL
same,solubility,[1]; water and α- or β-cyclodextrin sulfated sodium salt,only minimally soluble
same,solubility,"[1]; water, thermodynamic from solid, Concentration (solubility), 100% water, mean ± SD",1 ± 0.1 µg/mL
same,neurological score,basilar artery; 24 hour after SAH,no significant effect on the neurological score
same,diameter of the basilar artery,"basilar artery; 24 hours after SAH, H&E",increased the diameter
same,thickness of the wall of the basilar artery,"basilar artery; 24 hours after SAH, H&E",decreased the thickness of the wall
same,ratio of pERK/ERK in CSF,ERK/MAPK,increased significantly
same,ratio of pERK/ERK in CSF with U0126,ERK/MAPK; U0126 30 minutes before salvinorin,unchanged
same,blood brain barrier disruption and vascular leakage (Evans blue extravasation),[2],reduced the disruption and leakage
same,infarct size (TTC stains),[2],dose-dependent reduction
same,"motor function, grip strength score",[2],dose-dependent improvements in motor function
same,neurobehavior,[2],dose-dependent improvements
same,overall motor function,[2],improves overall motor function
same,protective effect on leakage with norbinaltorphimine,[2],inhibited the protective effect of salvinorin A
same,concentration required to effectively dilate pial arteries,pial artery [3],10 nM
same,preserved response to hypercapnia with SB203580,pial artery [4]; [5],No significant change in the preservative effects
same,preserved response to hypotension with SB203580,pial artery [4]; [5],no significantly changes
same,preserved response to hypercapnia with SP600125,pial artery [4]; [6],No significant change in the preservative effects
same,preserved response to hypotension with SP600125,pial artery [4]; [6],no significantly changes
same,preserved response to hypercapnia with U0126,pial artery [4]; [7],abolished by U0126
same,preserved response to hypotension with U0126,pial artery [4]; [7],abolished by U0126
same,pial artery dilation response to hypercapnia after hypoxia/ischemia,pial artery [4]; [8],preserved the dilation response of pial artery to hypercapnia
same,pial artery dilation response to hypotension after hypoxia/ischemia,pial artery [4]; [8],preserved the dilation response of pial artery to hypotension
